In patent US20110040086A1, “Novel Beta-Lactam Antibiotics, Methods for Their Production, and Their Use” (DRITTE PATENTPORTFOLIO BETEILIGUNGSGESELLSCHAFT MB, priority 2007, published 2011):

Experiments:
[1] = test system: Bacillus megaterium SBUG 1152; assay: agar diffusion test (Test System 1, antimicrobial effect); format: cell-based
Protocol: (§1) Test System 1 (Antimicrobial Effect)
(§2) The test germs Escherichia coli SBUG 1135 and Bacillus megaterium SBUG 1152 are drawn overnight (17 hours at 37° C.) in 5 ml nutrient medium II. The incubation is performed in a shaking incubator (INFORS AG CH 4103, Bottmingen, Switzerland) at a shaking frequency of 180 rpm.
(§3) After 17 h incubation time, Escherichia coli has reached a cell density of ca. 2.4×10^10 cells/ml and Bacillus megaterium a cell density of ca. 2.1×10^8 cells/ml.
(§4) The seeding of bacteria in agar is selected so that, dense, but not confluent individual colonies develop after the incubation.
Bacillus megaterium: 0.1 ml of non-diluted overnight culture (ÜN) in 10 ml nutrient agar corresponds to a cell count of 10^6.
(§5) The inoculated nutrient agar is set in sterile Petri dishes and left standing for a few minutes for drying.
(§6) The test substances are deposited in stepped quantities (10 μg, 50 μg, 100 μg) onto active ingredient carriers (sensi-discs). For this purpose, the test substances are dissolved in methanol or A. dest. according to their solubility. Each inoculated plate is fitted with 3 test sheets.
(§7) After a 20-hour incubation time at 37° C., the zones of inhibition around the individual test sheets could be measured. The diameter of the zone of inhibition is specified in mm.

B. subtilis AWD 166 = assay: agar diffusion test (antimicrobial effect); format: cell-based, Bacillus subtilis
Protocol: as §4, §5, §6, §7

[2] = test system: Escherichia coli SBUG 1135; assay: agar diffusion test (Test System 1, antimicrobial effect); format: cell-based; design: key: r = resistant (no detectable zone of inhibition)
Protocol: as §1, §2, §3, §4
Escherichia coli: the ÜN is diluted 1:100 with physiological saline solution, of which 0.1 ml is converted into 10 ml nutrient agar. That corresponds to a cell count of 10^6.
as §5, §6, §7

[3] = test system: Enterococcus faecalis 769; assay: agar diffusion test (Test System II, multi-resistant germs); format: cell-based; design: key: r = resistant (no detectable zone of inhibition)
Protocol: as §6
(§8) Test System II (Effect Against Multi-Resistant Germs)
(§9) For this purpose, bacteria is cultivated on Müller-Hinton-Agar II plates.
(§10) With 1-1.5 ml physiological saline solution, a bacteria suspension of McFarland 0.5 (corresponds to a bacteria density of 150×10^6 germs) is produced. Then, with a sterile glass rod, a small drop of bacteria suspension is placed on the Müller-Hinton-Agar plate and coated in three layers (vertical, horizontal, and transverse). Thereafter, the sensi-discs with the novel semi-synthetic test substances are placed on top. The fitted plates are incubated for 18-20 hours at 37° C. After incubation, the diameters of the zones of inhibition are read as a measure for the antimicrobial activity of the novel semi-synthetic test substances.

[4] = test system: Staphylococcus aureus 315; assay: as above; format: cell-based; design: key: r = resistant (no detectable zone of inhibition)
Protocol: as §6, §8, §9, §10

E. faecalis 945 = assay: as above; format: cell-based, Enterococcus faecalis; design: key: r = resistant (no detectable zone of inhibition)
Protocol: as §6, §8, §9, §10

S. aureus 33490 = assay: as above; format: cell-based, Staphylococcus aureus; design: key: r = resistant (no detectable zone of inhibition)
Protocol: as §6, §8, §9, §10

S. aureus 34289 = assay: as above; format: cell-based, Staphylococcus aureus; design: key: r = resistant (no detectable zone of inhibition)
Protocol: as §6, §8, §9, §10

S. aureus 36881 = assay: as above; format: cell-based, Staphylococcus aureus; design: key: r = resistant (no detectable zone of inhibition)
Protocol: as §6, §8, §9, §10

S. aureus 39105 = assay: as above; format: cell-based, Staphylococcus aureus; design: key: r = resistant (no detectable zone of inhibition)
Protocol: as §6, §8, §9, §10

S. aureus 520 = assay: as above; format: cell-based, Staphylococcus aureus; design: key: r = resistant (no detectable zone of inhibition)
Protocol: as §6, §8, §9, §10

S. aureus 526 = assay: as above; format: cell-based, Staphylococcus aureus; design: key: r = resistant (no detectable zone of inhibition)
Protocol: as §6, §8, §9, §10

[5] = test system: S. aureus North Germany strain; assay: as above; format: cell-based, Staphylococcus aureus; design: key: r = resistant (no detectable zone of inhibition)
Protocol: as §6, §8, §9, §10

S. aureus 38418 = assay: as above; format: cell-based, Staphylococcus aureus
Protocol: as §6, §8, §9, §10

S. aureus ATCC 6538 = assay: as above; format: cell-based, Staphylococcus aureus
Protocol: as §6, §8, §9, §10

S. epidermidis 1068 = assay: as above; format: cell-based, Staphylococcus epidermidis; design: key: r = resistant (no detectable zone of inhibition)
Protocol: as §6, §8, §9, §10

S. epidermidis 1071 = assay: as above; format: cell-based, Staphylococcus epidermidis; design: key: r = resistant (no detectable zone of inhibition)
Protocol: as §6, §8, §9, §10

S. epidermidis 563 = assay: as above; format: cell-based, Staphylococcus epidermidis; design: key: r = resistant (no detectable zone of inhibition)
Protocol: as §6, §8, §9, §10

S. epidermidis 847 = assay: as above; format: cell-based, Staphylococcus epidermidis; design: key: r = resistant (no detectable zone of inhibition)
Protocol: as §6, §8, §9, §10

S. epidermidis 125 = assay: as above; format: cell-based, Staphylococcus epidermidis
Protocol: as §6, §8, §9, §10

Substance: 7-[2-(2-ethoxycarbonyl-3,6-dioxocyclohexa-1,4-dienylamino)-2-phenyl-acetylamino]-desacetoxycephalosporanic acid [1h]
- Diameter of zone of inhibition ([1]; Quantity n 0.019): 18 mm
- Diameter of zone of inhibition ([1]; Quantity n 0.09): 28 mm
- Diameter of zone of inhibition ([1]; Quantity n 0.19): 32 mm
- Diameter of zone of inhibition (B. subtilis AWD 166; Quantity n 0.019): 22 mm
- Diameter of zone of inhibition (B. subtilis AWD 166; Quantity n 0.09): 30 mm
- Diameter of zone of inhibition (B. subtilis AWD 166; Quantity n 0.19): 32 mm
- Diameter of zone of inhibition ([2]; Quantity n 0.019): r
- Diameter of zone of inhibition ([2]; Quantity n 0.09): 14 mm
- Diameter of zone of inhibition ([2]; Quantity n 0.19): 18 mm
- Diameter of zone of inhibition ([3]; Quantity n 0.019): r
- Diameter of zone of inhibition ([3]; Quantity n 0.09): r
- Diameter of zone of inhibition ([3]; Quantity n 0.19): r
- Diameter of zone of inhibition ([4]; Quantity n 0.019): r
- Diameter of zone of inhibition ([4]; Quantity n 0.09): r
- Diameter of zone of inhibition ([4]; Quantity n 0.19): 10 mm
- Diameter of zone of inhibition (E. faecalis 945; Quantity n 0.019): r
- Diameter of zone of inhibition (E. faecalis 945; Quantity n 0.09): r
- Diameter of zone of inhibition (E. faecalis 945; Quantity n 0.19): r
- Diameter of zone of inhibition (S. aureus 33490; Quantity n [μmol] 0.019): r
- Diameter of zone of inhibition (S. aureus 33490; Quantity n [μmol] 0.09): 16 mm
- Diameter of zone of inhibition (S. aureus 33490; Quantity n [μmol] 0.19): 20 mm
- Diameter of zone of inhibition (S. aureus 34289; Quantity n [mol] 0.019): r
- Diameter of zone of inhibition (S. aureus 34289; Quantity n [mol] 0.09): r
- Diameter of zone of inhibition (S. aureus 34289; Quantity n [mol] 0.19): r
- Diameter of zone of inhibition (S. aureus 36881; Quantity n 0.019): r
- Diameter of zone of inhibition (S. aureus 36881; Quantity n 0.09): r
- Diameter of zone of inhibition (S. aureus 36881; Quantity n 0.19): 12 mm
- Diameter of zone of inhibition (S. aureus 39105; Quantity n 0.019): r
- Diameter of zone of inhibition (S. aureus 39105; Quantity n 0.09): 8 mm
- Diameter of zone of inhibition (S. aureus 39105; Quantity n 0.19): 14 mm
- Diameter of zone of inhibition (S. aureus 520; Quantity n [mol] 0.019): r
- Diameter of zone of inhibition (S. aureus 520; Quantity n [mol] 0.09): r
- Diameter of zone of inhibition (S. aureus 520; Quantity n [mol] 0.19): r
- Diameter of zone of inhibition (S. aureus 526; Quantity n 0.019): r
- Diameter of zone of inhibition (S. aureus 526; Quantity n 0.09): r
- Diameter of zone of inhibition (S. aureus 526; Quantity n 0.19): r
- Diameter of zone of inhibition ([5]; Quantity n 0.019): r
- Diameter of zone of inhibition ([5]; Quantity n 0.09): 8 mm
- Diameter of zone of inhibition ([5]; Quantity n 0.19): 12 mm
- Diameter of zone of inhibition (S. aureus 38418; Quantity n [mol] 0.019): 12 mm
- Diameter of zone of inhibition (S. aureus 38418; Quantity n [mol] 0.09): 22 mm
- Diameter of zone of inhibition (S. aureus 38418; Quantity n [mol] 0.19): 28 mm
- Diameter of zone of inhibition (S. aureus ATCC 6538; Quantity n 0.019): 20 mm
- Diameter of zone of inhibition (S. aureus ATCC 6538; Quantity n 0.09): 28 mm
- Diameter of zone of inhibition (S. aureus ATCC 6538; Quantity n 0.19): 30 mm
- Diameter of zone of inhibition (S. epidermidis 1068; Quantity n 0.019): r
- Diameter of zone of inhibition (S. epidermidis 1068; Quantity n 0.09): 10 mm
- Diameter of zone of inhibition (S. epidermidis 1068; Quantity n 0.19): 16 mm
- Diameter of zone of inhibition (S. epidermidis 1071; Quantity n 0.019): r
- Diameter of zone of inhibition (S. epidermidis 1071; Quantity n 0.09): 14 mm
- Diameter of zone of inhibition (S. epidermidis 1071; Quantity n 0.19): 20 mm
- Diameter of zone of inhibition (S. epidermidis 563; Quantity n 0.019): r
- Diameter of zone of inhibition (S. epidermidis 563; Quantity n 0.09): 14 mm
- Diameter of zone of inhibition (S. epidermidis 563; Quantity n 0.19): 18 mm
- Diameter of zone of inhibition (S. epidermidis 847; Quantity n [mol] 0.019): r
- Diameter of zone of inhibition (S. epidermidis 847; Quantity n [mol] 0.09): 12 mm
- Diameter of zone of inhibition (S. epidermidis 847; Quantity n [mol] 0.19): 18 mm
- Diameter of zone of inhibition (S. epidermidis 125; Quantity n 0.019): 12 mm
- Diameter of zone of inhibition (S. epidermidis 125; Quantity n 0.09): 24 mm
- Diameter of zone of inhibition (S. epidermidis 125; Quantity n 0.19): 28 mm
